Measurements: article PMC12372887, “Mechanism and cellular actions of the potent AMPK inhibitor BAY-3827” (Science Advances, 2025)

How the values were obtained:
Experiment in all cases: Kinase panel (140 human kinases)
Type in all cases: biochemical
S6K1 = S6K1 (Homo sapiens, UniProt P23443)
Method in brief: (§1)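 Single-point profiling at 0.1 μM; BAY-3827 also at 1 μM. ^33P-ATP radiometric filter-binding format, duplicates. ATP 5/20/50 μM (≤ Km for each enzyme). Readout: % residual activity, mean ± SD.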

MKK6 = MKK6 (Homo sapiens, UniProt P52564)
Method in brief: as §1

PKCz = PKCz (Homo sapiens, UniProt Q05513)
Method in brief: as §1

EPH-B3 = EPH-B3 (Homo sapiens, UniProt P54753)
Method in brief: as §1

PLK1 = PLK1 (Homo sapiens, UniProt P53350)
Method in brief: as §1

BRK = BRK (Homo sapiens, UniProt Q13882)
Method in brief: as §1

GSK3b = GSK3b (Homo sapiens, UniProt P49841)
Method in brief: as §1

ABL = ABL (Homo sapiens, UniProt P00519)
Method in brief: as §1

p38b MAPK = p38b MAPK (Homo sapiens, UniProt Q15759)
Method in brief: as §1

p38a MAPK = p38a MAPK (Homo sapiens, UniProt Q16539)
Method in brief: as §1

p38d MAPK = p38d MAPK (Homo sapiens, UniProt O15264)
Method in brief: as §1

IRR = IRR (Homo sapiens, UniProt P14616)
Method in brief: as §1

JNK2 = JNK2 (Homo sapiens, UniProt P45984)
Method in brief: as §1

MARK3 = MARK3 (Homo sapiens, UniProt P27448)
Method in brief: as §1

PDGFRA = PDGFRA (Homo sapiens, UniProt P16234)
Method in brief: as §1

FGF-R1 = FGF-R1 (Homo sapiens, UniProt P11362)
Method in brief: as §1

SIK3 = SIK3 (Homo sapiens, UniProt Q9Y2K2)
Method in brief: as §1

PIM3 = PIM3 (Homo sapiens, UniProt Q86V86)
Method in brief: as §1

MSK1 = MSK1 (Homo sapiens, UniProt O75582)
Method in brief: as §1

Lck = Lck (Homo sapiens, UniProt P06239)
Method in brief: as §1

MAP4K5 = MAP4K5 (Homo sapiens, UniProt Q9Y4K4)
Method in brief: as §1

BRSK1 = BRSK1 (Homo sapiens, UniProt Q8TDC3)
Method in brief: as §1

MARK1 = MARK1 (Homo sapiens, UniProt Q9P0L2)
Method in brief: as §1

PRK2 = PRK2 (Homo sapiens, UniProt Q16513)
Method in brief: as §1

EF2K = EF2K (Homo sapiens, UniProt O00418)
Method in brief: as §1

MEKK1 = MEKK1 (Homo sapiens, UniProt Q13233)
Method in brief: as §1

ULK1 = biological target: T1, ULK1 (Homo sapiens, UniProt O75385)
T1 sequence (O75385 1-1050): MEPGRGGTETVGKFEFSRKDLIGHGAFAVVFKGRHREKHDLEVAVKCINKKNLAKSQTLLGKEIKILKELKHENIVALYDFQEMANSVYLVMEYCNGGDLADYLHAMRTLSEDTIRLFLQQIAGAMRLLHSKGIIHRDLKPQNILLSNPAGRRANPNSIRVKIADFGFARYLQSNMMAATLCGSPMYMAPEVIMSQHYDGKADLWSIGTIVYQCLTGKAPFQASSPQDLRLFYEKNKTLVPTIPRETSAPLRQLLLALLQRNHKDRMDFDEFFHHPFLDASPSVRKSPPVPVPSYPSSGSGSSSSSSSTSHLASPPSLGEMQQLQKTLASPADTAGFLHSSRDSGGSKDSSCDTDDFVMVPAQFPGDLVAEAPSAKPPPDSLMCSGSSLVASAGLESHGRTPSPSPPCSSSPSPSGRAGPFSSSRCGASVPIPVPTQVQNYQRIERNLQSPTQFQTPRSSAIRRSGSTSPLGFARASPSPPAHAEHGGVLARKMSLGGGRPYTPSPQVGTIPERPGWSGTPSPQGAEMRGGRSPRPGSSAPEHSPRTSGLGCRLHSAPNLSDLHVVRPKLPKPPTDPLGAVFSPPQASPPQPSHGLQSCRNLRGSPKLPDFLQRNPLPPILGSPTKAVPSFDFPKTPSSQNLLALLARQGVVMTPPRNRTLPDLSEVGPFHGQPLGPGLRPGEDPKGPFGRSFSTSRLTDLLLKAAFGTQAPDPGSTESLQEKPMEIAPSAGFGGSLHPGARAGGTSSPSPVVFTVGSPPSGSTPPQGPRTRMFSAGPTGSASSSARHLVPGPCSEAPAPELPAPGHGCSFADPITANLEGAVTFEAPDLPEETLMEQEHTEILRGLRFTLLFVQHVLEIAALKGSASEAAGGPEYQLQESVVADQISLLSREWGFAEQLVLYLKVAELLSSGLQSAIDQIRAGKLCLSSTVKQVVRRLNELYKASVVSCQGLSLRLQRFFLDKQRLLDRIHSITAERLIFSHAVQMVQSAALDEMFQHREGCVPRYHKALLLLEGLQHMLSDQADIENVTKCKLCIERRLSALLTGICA
Method in brief: as §1

[1] = 1 μM, cross-referenced with screen data of ref 37, read-out: activity remaining after treatment

ABL, sequence (P00519 whole entry): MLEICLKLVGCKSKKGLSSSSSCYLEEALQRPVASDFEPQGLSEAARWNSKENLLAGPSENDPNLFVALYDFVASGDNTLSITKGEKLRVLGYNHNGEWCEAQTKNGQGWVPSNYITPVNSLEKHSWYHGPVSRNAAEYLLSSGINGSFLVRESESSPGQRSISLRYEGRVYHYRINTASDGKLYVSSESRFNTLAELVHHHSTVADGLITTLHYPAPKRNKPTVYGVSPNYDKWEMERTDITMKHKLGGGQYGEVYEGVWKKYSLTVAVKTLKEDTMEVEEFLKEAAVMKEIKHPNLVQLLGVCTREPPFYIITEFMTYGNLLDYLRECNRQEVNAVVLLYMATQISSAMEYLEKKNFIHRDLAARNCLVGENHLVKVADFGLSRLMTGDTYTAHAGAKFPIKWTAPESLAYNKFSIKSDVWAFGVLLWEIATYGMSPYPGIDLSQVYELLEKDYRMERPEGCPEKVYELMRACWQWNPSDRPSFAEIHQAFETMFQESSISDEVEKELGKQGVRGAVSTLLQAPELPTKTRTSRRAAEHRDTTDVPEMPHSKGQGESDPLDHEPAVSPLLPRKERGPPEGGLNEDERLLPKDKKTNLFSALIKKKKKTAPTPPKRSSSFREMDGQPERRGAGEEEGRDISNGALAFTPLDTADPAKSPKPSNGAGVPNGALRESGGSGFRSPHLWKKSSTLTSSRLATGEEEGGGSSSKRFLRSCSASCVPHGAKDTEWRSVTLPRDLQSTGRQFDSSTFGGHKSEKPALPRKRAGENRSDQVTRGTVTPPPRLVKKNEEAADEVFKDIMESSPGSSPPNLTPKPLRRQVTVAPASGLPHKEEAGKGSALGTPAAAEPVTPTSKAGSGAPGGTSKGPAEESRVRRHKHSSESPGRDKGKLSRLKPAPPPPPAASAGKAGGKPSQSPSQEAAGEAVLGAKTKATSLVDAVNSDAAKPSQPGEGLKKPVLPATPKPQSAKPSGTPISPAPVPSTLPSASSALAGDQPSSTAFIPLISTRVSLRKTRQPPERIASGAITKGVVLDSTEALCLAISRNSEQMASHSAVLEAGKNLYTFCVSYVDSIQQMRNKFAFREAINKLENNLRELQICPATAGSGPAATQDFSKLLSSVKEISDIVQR
MSK1, sequence (O75582 whole entry): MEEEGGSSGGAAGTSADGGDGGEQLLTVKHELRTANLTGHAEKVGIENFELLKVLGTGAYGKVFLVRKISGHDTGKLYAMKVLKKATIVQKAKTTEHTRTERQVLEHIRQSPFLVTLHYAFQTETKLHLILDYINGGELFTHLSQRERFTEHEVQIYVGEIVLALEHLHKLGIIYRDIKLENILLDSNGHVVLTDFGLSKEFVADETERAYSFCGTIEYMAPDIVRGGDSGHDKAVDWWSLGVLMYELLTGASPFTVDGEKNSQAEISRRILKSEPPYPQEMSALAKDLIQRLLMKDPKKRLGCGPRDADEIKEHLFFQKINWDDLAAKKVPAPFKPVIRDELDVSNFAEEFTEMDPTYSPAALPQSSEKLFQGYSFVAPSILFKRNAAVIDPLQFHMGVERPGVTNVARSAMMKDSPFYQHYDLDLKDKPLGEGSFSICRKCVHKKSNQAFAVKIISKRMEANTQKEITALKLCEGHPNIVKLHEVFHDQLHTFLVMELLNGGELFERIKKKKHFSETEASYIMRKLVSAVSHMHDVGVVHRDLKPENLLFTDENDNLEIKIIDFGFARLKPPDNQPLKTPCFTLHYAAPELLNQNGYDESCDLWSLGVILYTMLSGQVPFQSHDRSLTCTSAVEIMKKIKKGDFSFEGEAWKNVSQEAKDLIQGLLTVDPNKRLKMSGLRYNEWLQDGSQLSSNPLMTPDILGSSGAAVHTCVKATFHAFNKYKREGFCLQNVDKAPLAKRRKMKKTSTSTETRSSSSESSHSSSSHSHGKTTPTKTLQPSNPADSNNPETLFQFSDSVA
MARK1, sequence (Q9P0L2 whole entry): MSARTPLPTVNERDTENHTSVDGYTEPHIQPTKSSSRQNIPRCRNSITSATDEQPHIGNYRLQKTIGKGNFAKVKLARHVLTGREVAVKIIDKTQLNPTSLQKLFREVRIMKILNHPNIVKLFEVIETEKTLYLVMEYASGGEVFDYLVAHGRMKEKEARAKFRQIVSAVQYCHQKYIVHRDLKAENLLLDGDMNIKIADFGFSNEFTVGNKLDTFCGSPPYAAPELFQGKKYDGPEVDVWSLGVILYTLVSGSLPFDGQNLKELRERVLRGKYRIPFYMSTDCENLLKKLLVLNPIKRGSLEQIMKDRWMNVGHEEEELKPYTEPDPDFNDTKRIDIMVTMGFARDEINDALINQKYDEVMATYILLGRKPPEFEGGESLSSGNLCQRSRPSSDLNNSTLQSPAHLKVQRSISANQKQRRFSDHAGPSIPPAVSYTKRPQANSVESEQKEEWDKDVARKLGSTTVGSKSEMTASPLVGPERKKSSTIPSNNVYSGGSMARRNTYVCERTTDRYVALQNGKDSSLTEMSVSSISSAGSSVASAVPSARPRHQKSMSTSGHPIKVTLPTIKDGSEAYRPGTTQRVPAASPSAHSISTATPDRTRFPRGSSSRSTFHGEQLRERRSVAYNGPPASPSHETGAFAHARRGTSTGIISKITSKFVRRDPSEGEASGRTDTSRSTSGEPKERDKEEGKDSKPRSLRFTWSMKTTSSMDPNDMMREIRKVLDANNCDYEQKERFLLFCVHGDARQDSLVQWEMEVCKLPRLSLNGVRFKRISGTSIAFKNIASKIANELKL
IRR, sequence (P14616 27-1297): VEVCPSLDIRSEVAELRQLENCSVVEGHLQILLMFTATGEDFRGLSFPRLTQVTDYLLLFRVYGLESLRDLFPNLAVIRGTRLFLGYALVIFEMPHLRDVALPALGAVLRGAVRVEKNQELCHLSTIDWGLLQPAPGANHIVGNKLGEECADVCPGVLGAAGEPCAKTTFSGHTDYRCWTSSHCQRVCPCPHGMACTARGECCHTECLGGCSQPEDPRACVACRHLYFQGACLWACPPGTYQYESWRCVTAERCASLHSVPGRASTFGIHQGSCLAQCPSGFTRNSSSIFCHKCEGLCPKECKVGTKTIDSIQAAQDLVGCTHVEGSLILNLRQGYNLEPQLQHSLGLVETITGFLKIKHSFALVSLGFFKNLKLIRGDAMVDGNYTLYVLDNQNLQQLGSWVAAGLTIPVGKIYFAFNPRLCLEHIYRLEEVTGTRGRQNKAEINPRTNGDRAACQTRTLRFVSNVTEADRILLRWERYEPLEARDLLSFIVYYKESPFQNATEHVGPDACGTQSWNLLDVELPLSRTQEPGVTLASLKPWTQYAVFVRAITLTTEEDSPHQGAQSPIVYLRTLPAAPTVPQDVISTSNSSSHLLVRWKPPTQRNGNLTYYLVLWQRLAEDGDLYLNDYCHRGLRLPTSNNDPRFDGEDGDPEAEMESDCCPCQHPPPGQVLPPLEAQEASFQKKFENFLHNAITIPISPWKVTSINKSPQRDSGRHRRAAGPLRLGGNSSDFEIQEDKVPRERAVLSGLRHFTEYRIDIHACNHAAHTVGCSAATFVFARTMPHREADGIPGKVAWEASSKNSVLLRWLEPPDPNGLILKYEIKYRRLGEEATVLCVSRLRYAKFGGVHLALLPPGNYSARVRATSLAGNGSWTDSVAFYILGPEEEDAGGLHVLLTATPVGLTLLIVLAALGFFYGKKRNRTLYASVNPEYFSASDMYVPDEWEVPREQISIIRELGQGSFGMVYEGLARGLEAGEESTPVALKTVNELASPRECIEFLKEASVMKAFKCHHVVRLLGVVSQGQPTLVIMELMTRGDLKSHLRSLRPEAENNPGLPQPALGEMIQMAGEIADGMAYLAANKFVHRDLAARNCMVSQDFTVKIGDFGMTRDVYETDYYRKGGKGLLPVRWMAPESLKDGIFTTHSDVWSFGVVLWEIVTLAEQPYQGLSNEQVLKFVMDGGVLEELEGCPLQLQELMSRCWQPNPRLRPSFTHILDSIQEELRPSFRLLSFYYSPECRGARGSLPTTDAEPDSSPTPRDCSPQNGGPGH
p38b MAPK, sequence (Q15759 whole entry): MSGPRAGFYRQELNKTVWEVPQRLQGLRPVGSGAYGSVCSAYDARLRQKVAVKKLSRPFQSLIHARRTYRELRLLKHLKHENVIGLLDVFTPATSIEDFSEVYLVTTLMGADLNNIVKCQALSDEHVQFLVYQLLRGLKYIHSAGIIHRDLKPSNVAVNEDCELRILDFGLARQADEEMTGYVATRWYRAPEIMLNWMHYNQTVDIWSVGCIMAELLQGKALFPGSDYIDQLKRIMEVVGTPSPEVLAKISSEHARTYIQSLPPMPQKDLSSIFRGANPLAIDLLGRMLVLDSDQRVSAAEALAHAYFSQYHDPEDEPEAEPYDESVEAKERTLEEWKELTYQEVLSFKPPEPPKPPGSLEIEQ
p38a MAPK, sequence (Q16539 whole entry): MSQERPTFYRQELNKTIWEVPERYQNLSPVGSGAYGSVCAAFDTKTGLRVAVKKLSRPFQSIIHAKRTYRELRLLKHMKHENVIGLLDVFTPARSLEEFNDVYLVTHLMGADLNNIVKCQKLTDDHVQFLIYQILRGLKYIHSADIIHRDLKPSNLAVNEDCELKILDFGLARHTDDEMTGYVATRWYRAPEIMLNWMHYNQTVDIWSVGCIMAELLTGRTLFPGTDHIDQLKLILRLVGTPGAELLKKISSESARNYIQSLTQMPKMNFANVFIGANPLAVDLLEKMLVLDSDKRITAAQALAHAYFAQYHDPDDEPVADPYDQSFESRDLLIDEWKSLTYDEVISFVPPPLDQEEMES

Compound	remaining activity at 0.1 µM (S6K1) [%]	remaining activity at 0.1 µM (MKK6) [%]	remaining activity at 0.1 µM (PKCz) [%]	remaining activity at 0.1 µM (EPH-B3) [%]	remaining activity at 0.1 µM (PLK1) [%]	remaining activity at 0.1 µM (BRK) [%]	remaining activity at 0.1 µM (GSK3b) [%]	remaining activity at 0.1 µM (ABL) [%]	remaining activity at 0.1 µM (p38b MAPK) [%]	remaining activity at 0.1 µM (p38a MAPK) [%]	remaining activity at 0.1 µM (p38d MAPK) [%]	remaining activity at 0.1 µM (IRR) [%]	remaining activity at 0.1 µM (JNK2) [%]	remaining activity at 0.1 µM (MARK3) [%]	remaining activity at 0.1 µM (PDGFRA) [%]	remaining activity at 0.1 µM (FGF-R1) [%]	remaining activity at 0.1 µM (SIK3) [%]	remaining activity at 0.1 µM (PIM3) [%]	remaining activity at 0.1 µM (MSK1) [%]	remaining activity at 0.1 µM (Lck) [%]	further results
CCc1ccccc1C(=O)Nc1n[nH]c2c(C)c(F)c(C3C(C#N)=C(C)N(C)C(C)=C3C#N)cc12 [BAY-3827, N-[5-(3,5-dicyano-1,2,6-trimethyl-4H-pyridin-4-yl)-6-fluoro-7-methyl-1H-indazol-3-yl]-2-ethylbenzamide]	87	101	112	84	97	83	74	107	55	97	99	89	105	98	82	89	99	101	56	93	remaining activity at 1 µM (ABL; 1 μM, ABL1, cross-referenced with screen data of ref 37, read-out: activity remaining after treatment): ≥ 99%; remaining activity at 1 µM (PIM3; [1]): ≥ 99%; remaining activity at 1 µM (MSK1; [1]): ≤ 50%; remaining activity at 0.1 µM (MAP4K5): 97%; remaining activity at 0.1 µM (BRSK1): 77%; remaining activity at 0.1 µM (MARK1): 82%; remaining activity at 0.1 µM (PRK2): 88%; remaining activity at 0.1 µM (EF2K): 91%; remaining activity at 0.1 µM (MEKK1): 97%; remaining activity at 0.1 µM (ULK1): 88%
CC1=C(C#N)C(c2ccc3c(c2)c(NC(=O)c2ccccc2C)nn3C)C(C#N)=C(C)N1 [BAY-974, N-[5-(3,5-dicyano-2,6-dimethyl-1,4-dihydropyridin-4-yl)-1-methylindazol-3-yl]-2-methylbenzamide]	97	94	103	119	105	70	93	59	81	108	108	88	104	80	86	91	81	125	100	58	remaining activity at 0.1 µM (MAP4K5): 89%; remaining activity at 0.1 µM (BRSK1): 96%; remaining activity at 0.1 µM (MARK1): 93%; remaining activity at 0.1 µM (PRK2): 83%; remaining activity at 0.1 µM (EF2K): 119%; remaining activity at 0.1 µM (MEKK1): 99%; inhibition at 0.1 µM (ULK1): 55 to 90%; remaining activity at 0.1 µM (ULK1): ≤ 50%
